From patent publication US5846944A (priority 1997, dated 1998)
Where two headings read alike, the source gives them in different places.

Key:
[1] = test system: hypercholesterolemic atherosclerosis, New Zealand White rabbits; details: cited from earlier work
[2] = Body weight of hypercholesterolemic rabbits (Example 1); type: in vivo, New Zealand white rabbits
Experimental: (§1) Experiments were carried out on six to eight week old female New Zealand white rabbits weighing between 1.8 and 2.0 kg. All procedures relating to the care and welfare of test animals within this experimental protocol conformed to a Standard Operating Procedure (SOP) approved by the Council on Animal Care, University of Saskatchewan, Saskatoon, Saskatchewan, Canada.
(§2) Blood samples for measurement of triglycerides (TG), total cholesterol (TC), low density lipoprotein cholesterol (LDL-C), very-low density lipoprotein cholesterol (VLDL-C), and high density lipoprotein cholesterol (HDL-C) were taken before the animals were assigned to the experimental diet (T=0), and after 1 (T=1) and 2 months (T=2) on the experimental diet. The rabbits were sacrificed under pentabarbital anesthesia at the end of 2 months. The aorta was removed for the assessment of atherosclerotic plaques.
(§3) Much has been made of the importance of the composition of certain dietary fats toward health, particularly in relation to the degree of saturation of the fatty acid composition of the triglycerides.

[3] = test system: NIDDM, Zucker diabetic fatty rat (ZDF); assay: NIDDM in Zucker diabetic fatty rats (Example 5); type: in vivo; details: SDG 22 mg/kg daily orally in drinking water; two rats examined; two untreated rats showed clear signs
Experimental: Oxidative stress was assessed by measuring lipid peroxidation product malondialdehyde (MDA) a measure of levels of oxygen radicals, and tissue chemiluminescence (CL) an index of antioxidant reserve in blood and pancreatic tissue. Male 5-6 weeks old ZDF and age match Zucker lean control (ZLC) rats were obtained from Charles River, St. Constant, Quebec, Canada.
Rats were tested for glucosuria to establish diabetes at 5-6 weeks before they were assigned to various groups. None of the rats had glucosuria at this age. […] At the end of the protocol, under anesthesia, blood samples were taken to measure serum glucose and MDA, and pancreas were removed to assess pancreatic MDA and antioxidant reserve.

[4] = test system: hypercholesterolemic atherosclerosis, New Zealand White rabbits; assay: Comparison with other compounds: hypercholesterolemic atherosclerosis and total cholesterol in rabbits; type: in vivo; details: compared with Vitamin E
Text: The effect of Probucol on reducing atherosclerosis varied between 15-45%, depending upon the extent of the hypercholesterolemia.
The mechanism of action for Vitamin E is now generally accepted as preventing the development of hypercholesterolemic atherosclerosis through its antioxidant activity and its ability to scavenge free radicals in the bloodstream.

[5] = test system: endotoxic shock, anesthetized dogs; assay: Endotoxic-shock-induced changes in cardiovascular function, contractility, MDA and antioxidant reserve in anesthetized dogs (Example 2); type: in vivo; details: SDG 10 mg/kg i.v. 15 min prior to endotoxin 5 mg/kg i.v.
Experimental: The dogs were divided into three groups. Group I, (sham 3 hours, n=5). Group II, (ET, n=9), these dogs received endotoxin (5 mg/kg, intravenously). […] Mean aortic blood pressure (mAo), cardiac index (CI) a measure of cardiac function, and cardiac contractility (dp/dt at CPIP/PAW) were measured before (0 min) and at 30 min, 60 min, 90 min, 120 min and 180 min after endotoxin administration. At the end of 3 hours of experiment heart was removed for measurement of MDA and antioxidant reserve. Cardiac function and contractility were measured. Left ventricular MDA (LV-MDA) and left ventricular chemiluminescence (LV-CL) a measure of antioxidant reserve were also estimated.

[6] = test system: diabetes mellitus, BBdp rats; assay: Spontaneously developing IDDM in diabetic prone BB (BBdp) rats (Example 5); type: in vivo; details: SDG 22 mg/kg daily
Experimental: Two animal models of IDDM used were: streptozotocin-induced and diabetic prone (dp) BB rats (BBdp). The Zucker diabetic fatty rat (ZDF), an animal model closely resembling human NIDDM, was used for NIDDM.
BBdp rats develop diabetes melliuts spontaneously. […] Serum malondialdehyde (MDA) a measure of levels of oxygen radicals, and antioxidant reserve [pancreatic-chemiluminescence (Pancreatic-CL)] were assessed in blood and pancreas. Male 35-day old BBdp and age matched nondiabetic prone BE (BBn) rats were obtained from Animal Resources Division, Health Protection Branch (Ottawa, Canada).
Two rats from BBn and 4 rats from BBdp at the age of 35 days were sacrificed to measure serum glucose and MDA, and pancreatic MDA and antioxidant reserve. […] Diagnosis of diabetes mellitus was established by testing for the presence of glucosuria which was done every altenate day for 120 days or until glucosuria appeared. Once they developed diabetes or at the end of 120 days rats were anesthetized with nembutal sodium. Blood samples were taken to measure serum glucose and MDA, and pancreas were removed to assess pancreatic MDA and antioxidant reserve. None of the BBdp rats tested positive for glucosuria at 5 weeks and at that age the serum glucose in BBn and BBdp rats were 8.75±0.63 and 10.03±0.65 mmoles/L respectively.

[7] = test system: New Zealand white rabbits; assay: Serum lipids in rabbits (Example 4); type: in vivo; details: + 1% cholesterol
Experimental: as §1, §2

[8] = test system: streptozotocin-induced diabetes mellitus, Sprague-Dawley rats; assay: Streptozotocin-induced diabetes mellitus in rats (Example 3); type: in vivo; details: for Plasma Glucose: mean + S.E., P<0.05 vs Group I and vs Group II
Experimental: Experimental diabetes mellitus was produced in Sprague-Dawley rats by injecting streptozotocin (STZ, 65 mg/kg) intravenously. Diagnosis of diabetes mellitus was established by testing for the presence of glucosuria with Ames Multi Stix (Miles Canada Inc., Etobicoke, Ontario) on the 3rd day after streptozotocin administration. The rats were divided into 4 groups.

[9] = Body weight of hypercholesterolemic rabbits (Example 4); type: in vivo, New Zealand White rabbits; details: + 1% cholesterol
Experimental: as §1, §2

[10] = test system: Atherosclerotic plaques, New Zealand White rabbits; assay: Development of atherosclerotic plaques in rabbits on experimental diets (Example 1); type: in vivo; details: control diet without cholesterol; flaxseed 15% of diet or SDG 15 mg/kg oral; 2 months
Experimental: as §1, §2, §3

[11] = test system: New Zealand white rabbits; assay: Serum lipids (TC, LDL-C, VLDL-C, HDL-C, triglycerides) in rabbits on experimental diets (Example 1); type: in vivo
Experimental: as §1
as §2, with “plaques. […]” for “plaques.”

[12] = 0 month, + 1% cholesterol group
[13] = 0 month, control diet without cholesterol
[14] = 1 month, + 1% cholesterol, flaxseed 15% or SDG 15 mg/kg oral
[15] = 1 month, control diet without cholesterol, flaxseed 15% or SDG 15 mg/kg oral
[16] = 2 months, + 1% cholesterol, flaxseed 15% or SDG 15 mg/kg oral
[17] = 0 months, SDG 5 mg/kg or SDG (89% pure) 11.24 mg/kg group
[18] = 1 month, SDG 5 mg/kg or SDG (89% pure) 11.24 mg/kg, orally daily
[19] = 2 months, SDG 5 mg/kg or SDG (89% pure) 11.24 mg/kg, orally daily
[20] = SDG 22 mg/kg orally for 3 days + STZ 65 mg/kg i.v., 12 rats/group
[21] = SDG 44 mg/kg orally for 3 days + STZ 65 mg/kg i.v., 10 rats/group
[22] = 2 months, control diet without cholesterol, flaxseed 15% or SDG 15 mg/kg oral

Molecule: CC(C)(Sc1cc(C(C)(C)C)c(O)c(C(C)(C)C)c1)Sc1cc(C(C)(C)C)c(O)c(C(C)(C)C)c1 [Probucol]
- reduction of hypercholesterolemic atherosclerosis ([1]; Probucol 0.5% in the diet (equivalent to 250 mg/Kg), 0.5% cholesterol diet): up to 43%
- total cholesterol in the bloodstream ([1]; Probucol 0.5% in the diet, 0.5% cholesterol diet): did not reduce the total cholesterol
- effect on reducing atherosclerosis ([1]; Probucol, depending upon the extent of the hypercholesterolemia): 15-45%

Molecule: COc1cc(CC(COC2OC(CO)C(O)C(O)C2O)C(COC2OC(CO)C(O)C(O)C2O)Cc2ccc(O)c(OC)c2)ccc1O (stereo not drawn) [SDG, secoisolariciresinol diglucoside]
- Body weight [2, 12]: 1.25 ± 0.03 kg
- Body weight [2, 13]: 1.75 ± 0.02 kg
- Body weight [2, 14]: 1.98 ± 0.08 kg
- Body weight [2, 15]: 2.34 ± 0.04 kg
- Body weight [2, 16]: 2.35 ± 0.10 kg
- signs of diabetes [3]: showed no signs of diabetes
- reduction of hypercholesterolemic atherosclerosis and of total blood cholesterol [4]: accomplishes both
- Mean aortic blood pressure (mAo), ET-induced fall [5]: prevented the ET-induced fall in mAO up to 30 min
- Left ventricular MDA (LV-MDA), ET-induced increase ([5]; 3 hours): prevented the ET-induced increase in LV-MDA
- antioxidant reserve (LV-CL), ET-induced decrease ([5]; 3 hours): prevented the ET-induced decrease in antioxidant reserve
- rats that developed diabetes ([6]; orally in drinking water, up to 120 days, untreated BBdp 72.7%): 21.4%
- prevention of the development of diabetes ([6]; orally in drinking water, vs untreated BBdp): 70.55%
- Pancreatic / serum MDA ([6]; both nondiabetic and diabetic, vs untreated BBdp): lower in the SDG-treated group in both nondiabetic and diabetic as compared to untreated BBdp rats
- serum glucose, rats that developed diabetes ([6]; compared with nondiabetic SDG-treated BBdp): higher than those not developing diabetes in this group
- onset of diabetes ([6]; rats that developed diabetes): delayed the onset of diabetes in ones that developed diabetes
- Pancreatic antioxidant reserve (Pancreatic-CL) ([6]; untreated BBdp vs control or SDG-treated group): slightly lower in the untreated group as compared to the control or SDG-treated group but were not significant
- Serum HDL-C levels [7, 17]: 0.83 ± 0.08 mmol/L
- Serum LDL-C levels [7, 17]: 0.89 ± 0.14 mmol/L
- Serum Triglyceride levels [7, 17]: 1.30 ± 0.19 mmol/L
- Serum VLDL-C levels [7, 17]: 0.59 ± 0.09 mmol/L
- Total serum cholesterol levels [7, 17]: 2.31 ± 0.19 mmol/L
- Serum HDL-C levels [7, 18]: 0.76 ± 0.42 mmol/L
- Serum LDL-C levels [7, 18]: 75.98 ± 9.04 mmol/L
- Serum Triglyceride levels [7, 18]: 0.97 ± 0.16 mmol/L
- Serum VLDL-C levels [7, 18]: 0.44 ± 0.08 mmol/L
- Total serum cholesterol levels [7, 18]: 77.24 ± 7.22 mmol/L
- Serum HDL-C levels [7, 19]: 0.48 ± 0.10 mmol/L
- Serum LDL-C levels [7, 19]: 58.68 ± 9.69 mmol/L
- Serum Triglyceride levels [7, 19]: 0.87 ± 0.20 mmol/L
- Serum VLDL-C levels [7, 19]: 0.39 ± 0.09 mmol/L
- Total serum cholesterol levels [7, 19]: 59.61 ± 9.8 mmol/L
- # Rats Developing Diabetes [8, 20]: 2 rats
- percent of rats developing diabetes mellitus [8, 20]: 16.6%
- Plasma Glucose ([8]; SDG 22 mg/kg orally for 3 days + STZ): 9.63 ± 0.71 mmol/L
- preventing the development of diabetes, 44 mg/kg compared with 22 mg/kg ([8]; SDG 44 mg/kg): more effective than in the dose of 22 mg/kg
- # Rats Developing Diabetes [8, 21]: 1 rats
- percent of rats developing diabetes mellitus [8, 21]: 10%
- Plasma Glucose ([8]; SDG 44 mg/kg orally for 3 days + STZ): 10.01 ± 0.76 mmol/L
- plasma glucose levels compared with streptozotocin-treated group ([8]; SDG 22 and 44 mg/kg): much lower than those in streptozotocin-treated group
- prevention of the development of STZ-induced diabetes mellitus ([8]; SDG 22 and 44 mg/kg, overall): approximately 81%
- Body weight [9, 17]: 1.47 ± 0.02 kg
- Body weight [9, 18]: 2.45 ± 0.04 kg
- Atherosclerotic plaques (% of total internal surface area) [10]: 0 % of total internal surface ar
- Serum HDL-C levels [11, 12]: 0.62 ± 0.10 mmol/L
- Serum LDL-C levels [11, 12]: 1.09 ± 0.19 mmol/L
- Serum Triglyceride levels [11, 12]: 1.21 ± 0.09 mmol/L
- Serum VLDL-C levels [11, 12]: 0.55 ± 0.04 mmol/L
- Total serum cholesterol levels [11, 12]: 2.26 ± 0.25 mmol/L
- Serum HDL-C levels [11, 13]: 0.58 ± 0.09 mmol/L
- Serum LDL-C levels [11, 13]: 0.34 ± 0.09 mmol/L
- Serum Triglyceride levels [11, 13]: 1.10 ± 0.13 mmol/L
- Serum VLDL-C levels [11, 13]: 0.50 ± 0.06 mmol/L
- Total serum cholesterol levels [11, 13]: 1.42 ± 0.11 mmol/L
- Serum HDL-C levels [11, 14]: 1.30 ± 0.18 mmol/L
- Serum LDL-C levels [11, 14]: 66.26 ± 7.23 mmol/L
- Serum Triglyceride levels [11, 14]: 1.40 ± 0.17 mmol/L
- Serum VLDL-C levels [11, 14]: 0.64 ± 0.08 mmol/L
- Total serum cholesterol levels [11, 14]: 68.20 ± 7.41 mmol/L
- Serum HDL-C levels [11, 15]: 0.60 ± 0.06 mmol/L
- Serum LDL-C levels [11, 15]: 0.33 ± 0.06 mmol/L
- Serum Triglyceride levels [11, 15]: 0.63 ± 0.02 mmol/L
- Serum VLDL-C levels [11, 15]: 0.29 ± 0.01 mmol/L
- Total serum cholesterol levels [11, 15]: 1.22 ± 0.11 mmol/L
- Serum HDL-C levels [11, 16]: 1.20 ± 0.48 mmol/L
- Serum LDL-C levels [11, 16]: 43.25 ± 6.64 mmol/L
- Serum Triglyceride levels [11, 16]: 1.83 ± 0.35 mmol/L
- Serum VLDL-C levels [11, 16]: 0.83 ± 0.16 mmol/L
- Total serum cholesterol levels [11, 16]: 45.18 ± 6.68 mmol/L
- Serum HDL-C levels [11, 22]: 0.50 ± 0.00 mmol/L
- Serum LDL-C levels [11, 22]: 0.25 ± 0.04 mmol/L
- Serum Triglyceride levels [11, 22]: 0.60 ± 0.12 mmol/L
- Serum VLDL-C levels [11, 22]: 0.27 ± 0.02 mmol/L
- Total serum cholesterol levels [11, 22]: 1.12 ± 0.10 mmol/L

Molecule: Vitamin E
- reduction of hypercholesterolemic atherosclerosis ([1]; Vitamin E 40 mg/kg, rabbits): up to 73%
- total blood cholesterol ([1]; Vitamin E 40 mg/kg, rabbits): without reducing the total blood cholesterol
